According to the OligoGym collection:
These antisense oligonucleotides have a phosphorothioate backbone; sugars and methylation of C are not fully specified.
Further: test concentration or dose not given here.

What follows are sequences tested against BIRC5. Conditions: ASO.
GGTTAATTCTTCAAACTG was tested, and the remaining target (mRNA or protein) (fraction of control) was ≥ 1. With TACGCCAGACTTCAGCCC the remaining target (mRNA or protein) (fraction of control) was 0.99. For TCAGATTCAACAGGCACC, the remaining target (mRNA or protein) (fraction of control) was ≥ 1. TCCAGCTCCTTGAAGCAG gave a remaining target (mRNA or protein) (fraction of control) of 0.68. With TCCCTCACTTCTCACCTG the remaining target (mRNA or protein) (fraction of control) was 0.71. Sequence TCGCAGTTTCCTCAAATT has a remaining target (mRNA or protein) (fraction of control) of 0.63. In the case of TCTTATTGTTGGTTTCCT, the remaining target (mRNA or protein) (fraction of control) is reported as ≥ 1. Work on TCTTGGCTCTTTCTCTGT yielded a remaining target (mRNA or protein) (fraction of control) of 0.66. TGAGAAAGGGCTGCCAGG was tested, and the remaining target (mRNA or protein) (fraction of control) was 0.54. TGTGCTATTCTGTGAATT gave a remaining target (mRNA or protein) (fraction of control) of 0.8. TGTTGTTAAACAGTAGAG was tested, and the remaining target (mRNA or protein) (fraction of control) was ≥ 1. In the case of TTCTTGAATGTAGAGATG, the remaining target (mRNA or protein) (fraction of control) is reported as ≥ 1. Sequence TTTGAAAATGTTGATCTC has a remaining target (mRNA or protein) (fraction of control) of 0.92.

Each sequence was assayed against MAP2K2. Conditions: ASO.
AACACACCGTTGGGCAGC was tested, and the remaining target (mRNA or protein) (fraction of control) was 0.13. Work on ACGCAGGGAGCCCGGCCA yielded a remaining target (mRNA or protein) (fraction of control) of 0.29. With AGCGTCGCCCGTCCCCAG the remaining target (mRNA or protein) (fraction of control) was 0.15. In the case of AGCTTCCTGGCCATGATG, the remaining target (mRNA or protein) (fraction of control) is reported as 0.36. Sequence ATCTCAAGGTGGATCAGC has a remaining target (mRNA or protein) (fraction of control) of 0.71. Sequence ATGATCTGGTTCCGGATG has a remaining target (mRNA or protein) (fraction of control) of 0.35. In the case of CACTTCTTCCACCTCGGA, the remaining target (mRNA or protein) (fraction of control) is reported as 0.31. CAGATGTCCGACTGCACC showed a remaining target (mRNA or protein) (fraction of control) of 0.32. Sequence CCGTTGCCCGCGCCCAGC has a remaining target (mRNA or protein) (fraction of control) of 0.24. In the case of CGGTCGGTCGGCTCGAAT, the remaining target (mRNA or protein) (fraction of control) is reported as 0.8. CGTGCCCACGAAGGAGTT was tested, and the remaining target (mRNA or protein) (fraction of control) was 0.26. CGTTCACAATATAGTCCA showed a remaining target (mRNA or protein) (fraction of control) of 0.4. In the case of CTCCTTCTTCCCCGTCGA, the remaining target (mRNA or protein) (fraction of control) is reported as 0.4. CTGGTTCAGCCGCAGGGT showed a remaining target (mRNA or protein) (fraction of control) of 0.34. CTGTGCTGGACTTTGGTG showed a remaining target (mRNA or protein) (fraction of control) of 0.42. Work on CTTCCTCCGGGCCAGCAT yielded a remaining target (mRNA or protein) (fraction of control) of 0.37. CTTCTGCTGCTCGTCAAG gave a remaining target (mRNA or protein) (fraction of control) of 0.65. For GAGGTACGCCAAGCCCCG, the remaining target (mRNA or protein) (fraction of control) was 0.11. Work on GATGTACGGCGAGTTGCA yielded a remaining target (mRNA or protein) (fraction of control) of 0.81. GGTAGGGTTGATGGTGAG was tested, and the remaining target (mRNA or protein) (fraction of control) was 0.56. Work on GGTGCTCTCCGCAGGGTG yielded a remaining target (mRNA or protein) (fraction of control) of 0.2. Sequence GGTTCTTGATGAGGCATT has a remaining target (mRNA or protein) (fraction of control) of 0.31. In the case of GTCACTGTAGAAGGCCCC, the remaining target (mRNA or protein) (fraction of control) is reported as 0.38. GTGCATGATCTGGTGCTT was tested, and the remaining target (mRNA or protein) (fraction of control) was 0.24. For GTGCCCTGCAACCGCTCC, the remaining target (mRNA or protein) (fraction of control) was 0.14. GTGTCCTCAGCTGGAAGG showed a remaining target (mRNA or protein) (fraction of control) of 0.61. GTTCACGAGGATGTTGGA showed a remaining target (mRNA or protein) (fraction of control) of 0.82. For GTTTTGTTTTGTAACCTA, the remaining target (mRNA or protein) (fraction of control) was 0.72. In the case of TAACCTAAGGAAGCAGAG, the remaining target (mRNA or protein) (fraction of control) is reported as 0.33. TACCTTCCGACGGCCAGC gave a remaining target (mRNA or protein) (fraction of control) of 0.18. Sequence TCACCCCGAAGTCACACA has a remaining target (mRNA or protein) (fraction of control) of 0.56. In the case of TCATCGTCTTTGAGTTCG, the remaining target (mRNA or protein) (fraction of control) is reported as 0.45. TCCACCAGGTTTGCCTCG gave a remaining target (mRNA or protein) (fraction of control) of 0.14. In the case of TCCATCCCGTGACCGCTG, the remaining target (mRNA or protein) (fraction of control) is reported as 0.18. Work on TCTCCTCGGGAATCCTCT yielded a remaining target (mRNA or protein) (fraction of control) of 0.43. In the case of TCTTTCAGCACCTGGTCC, the remaining target (mRNA or protein) (fraction of control) is reported as 0.48. For TGGTTTGTGAGCATCTTC, the remaining target (mRNA or protein) (fraction of control) was 0.29. In the case of TGTGTTCCATGCAAATGC, the remaining target (mRNA or protein) (fraction of control) is reported as 0.75. TTGGCTTTCTGGGTGAGA showed a remaining target (mRNA or protein) (fraction of control) of 0.83. In the case of TTTCGAAGTCATCGTCTT, the remaining target (mRNA or protein) (fraction of control) is reported as 0.56.

These sequences were tested against MAP3K5. Conditions: ASO.
Sequence AAGAAGATCAGCTCTGTATT has a remaining target (mRNA or protein) (fraction of control) of 0.49. For ACCGGCTTATAGTGTCTTCA, the remaining target (mRNA or protein) (fraction of control) was 0.73. Sequence AGGGTTTCCAGGGTGGCGCC has a remaining target (mRNA or protein) (fraction of control) of 0.52. With AGTAAACAAATACTGGATTT the remaining target (mRNA or protein) (fraction of control) was 0.77. ATGTCATTGAGTATAGATTC gave a remaining target (mRNA or protein) (fraction of control) of 0.69. In the case of ATGTTGTTGGCCATGCTGAA, the remaining target (mRNA or protein) (fraction of control) is reported as 0.31. CAAATTCTCTGAGGCTTGCA gave a remaining target (mRNA or protein) (fraction of control) of 0.54. CAAATTTAGAAATACTCACT was tested, and the remaining target (mRNA or protein) (fraction of control) was 0.85. In the case of CACTGCTCGAGGAGGTGGCC, the remaining target (mRNA or protein) (fraction of control) is reported as 0.47. Sequence CAGCTCAAGGGCGCCGCGCT has a remaining target (mRNA or protein) (fraction of control) of 0.59. For CAGTAACATCTGTCTTTGTG, the remaining target (mRNA or protein) (fraction of control) was 0.62. CATCAACAAGCAAGTCGTTA gave a remaining target (mRNA or protein) (fraction of control) of 0.37. Sequence CATCTCTCCGGGCCGGGCAG has a remaining target (mRNA or protein) (fraction of control) of 0.61. In the case of CCAGAAGCTGCCCGGCGGCG, the remaining target (mRNA or protein) (fraction of control) is reported as 0.56. Work on CCGAATTCCCTTGACATCTC yielded a remaining target (mRNA or protein) (fraction of control) of 0.62.
